Assay results reported in patent publication US9433663B2, “Mobilization of hematopoietic stem cells” (Children's Hospital Medical Center, priority 2008, dated 2016).

Columns and labels:
[1] = system: HSCs (IL7Ra^−Lin^−Sca-1^+c-Kit^+) in the BM; assay: six-color FACS of BM HSPC compartments after treatment; assay type: in vivo; details: after CASIN injection, C57Bl/6 mice
Method: Whether CASIN administration can induce mobilization of HSC/Ps to peripheral blood of C57Bl/6 mice, mimicking the phenotype observed in Cdc42 conditional knockout mice, was evaluated. First of all, mobilization of hematopoietic progenitor cells was examined by CFU-C assays functionally (FIG. 3a). […] Secondarily, to further explore the ability of CASIN to mobilize LT-HSC which is crucial for long-term repopulation of the mobilized cells, serial transplantations were carried out, where 20 million PB from CASIN-mobilized C57Bl/6 mice was transplanted into primary recipient of NOD/SCID mice, and subsequent secondary and tertiary transplants were finished as well using prior BMs (FIG. 3c). Donor chimerisms were assessed by using H2K^b congenic marker which is positive for donors of C57Bl/6 strain and negative for recipients of NOD/SCID strain. […] Therefore, the studies show CASIN can efficiently mobilize colony-forming hematopoietic progenitors and LT-HSCs with self-renewal and multi-lineage differentiation capacity. […]
To immunophenotypically profile the multi-compartments of HSPCs in BM, FACS analysis of six-color staining was carried out as previously. […] The sub-compartments of HSC, LT-HSC, ST-HSC, and CLP were quantified accordingly.

C57Bl/6 mice = assay: mobilization of colony-forming progenitors to peripheral blood, CFU-C assay; assay type: in vivo; details: intraperitoneal 2.4 mg/Kg, 40 hrs post administration, in comparison to vehicle control
Method: Whether CASIN administration can induce mobilization of HSC/Ps to peripheral blood of C57Bl/6 mice, mimicking the phenotype observed in Cdc42 conditional knockout mice, was evaluated. First of all, mobilization of hematopoietic progenitor cells was examined by CFU-C assays functionally (FIG. 3a). […] Secondarily, to further explore the ability of CASIN to mobilize LT-HSC which is crucial for long-term repopulation of the mobilized cells, serial transplantations were carried out, where 20 million PB from CASIN-mobilized C57Bl/6 mice was transplanted into primary recipient of NOD/SCID mice, and subsequent secondary and tertiary transplants were finished as well using prior BMs (FIG. 3c). Donor chimerisms were assessed by using H2K^b congenic marker which is positive for donors of C57Bl/6 strain and negative for recipients of NOD/SCID strain. […] Therefore, the studies show CASIN can efficiently mobilize colony-forming hematopoietic progenitors and LT-HSCs with self-renewal and multi-lineage differentiation capacity. Thirdly, to further investigate the potential of CASIN to vacate the BM niche after mobilization, six-color staining of the BM cells was performed from C57Bl/6 mice with or without CASIN treatment followed by FACS analysis. […] Therefore, a transient decrease in BM and a concomitant increase in peripheral organs of HSCs would be beneficial to facilitating the subsequent HSC transplantation.
To determinate the hematopoietic progenitor content in the PB of mobilized C57Bl/6 mice, colony-forming unit assay was performed as described previously. Briefly, 200 ul PB was plated in triplicate into methylcellulose (MethocultM3434; StemCell Technology, Vancouver, BC, Canada). Colonies were then counted 7 d later.

PAK1, WASP, WAVE, ROCK = assay: Example 7 phosphorylation of downstream effectors by western blot; assay type: cell-based, murine LDBM and human HCB cells; details: HCB and LDBM cells
Method: To exclude the inhibitory effect of CASIN on other Rac isoforms, Rho GTPases, and Ras, broader effector pull-down experiments are performed on these possible candidates with gradient doses of CASIN in LDBM and HCB cells as previously described. In addition, CASIN has been indicated as a noncovalent and reversible inhibitor in Xenopus egg extract. To confirm it, reversibility is monitored in this set of effector pull-down experiments. Four treatment groups are divided for both LDBM and HCB cells: (1) Serum starvation 20 h; (2) Serum starvation 20 h+growth factors stimulation; (3) Serum starvation 20 h+CASIN treatment (doses: 1, 2.5, 5, and 10 μM) 3 h+growth factor stimulation; (4) Serum starvation 20 h+CASIN treatment (doses: 1, 2.5, 5, and 10 μM) 3 h+wash the cells, and culture for another 3 h for recovery+growth factors stimulation. […] Bound proteins are analyzed by immunoblotting with respective antibodies (BD Biosciences). Furthermore, changes of downstream targets of Cdc42, Rac, and Rho under the four treatment groups are assessed. Phosphorylation status of PAK1, WASP (effectors of Cdc42), WAVE (effector of Rac), and ROCK (effector of Rho) are monitored by western blots using respective antibodies.

Cdc42 = Cdc42 (Mus musculus, UniProt P60766); assay: Cdc42 activity (effector pulldown) in primary murine fibroblasts; assay type: cell-based; parameters: endogenous in cells; host or cells: murine low density bone marrow (LDBM) cells; details: Cdc42GAP^−/− primary murine fibroblasts
Excerpt: To investigate the Cdc42-dependent cytoskeleton rearrangement, Swiss 3T3 fibroblasts were used since it was abundantly elaborated in Swiss 3T3 fibroblats that bradykinin induces actin filopodia formation through activating Cdc42, whereas PDGF activates Rac1 and induces Rac-mediated membrane lamellipoidia, and LPA responsible for RhoA activation, eliciting RhoA-medicated formation of actin stress fibers and focal adhesion assembly (Ridley, A. J. et al. Cell 70, 401-410 (1992); Ridley, A. J. et al. Cell 70, 389-399 (1992); Kozma, R. et al. Mol Cell Biol 15, 1942-1952 (1995)).
To analyze the effects of CASIN on the formation of active GTP-bound Cdc42, RhoA, and Rac1, effector pulldown assays were carried out as described previously. Cdc42GAP^−/− MEF, LDBM, CD34^+ hCB cells were treated with CASIN at doses of 5-20 μM in parallel with vehicle control for 2 hrs after overnight starvation, and stimulated with cytokines subsequently. And then cells were lysed in a buffer containing 20 mM Tris-HCL (pH 7.6), 100 mM NaCl, 1% Triton X-100, 10 mM MgCl2, 2 mM NaF, and Protease inhibitor cocktail (Roche Diagnostics). Lysates were incubated with GST-P21-binding domain of PAK1 for RAC1-GTP and Cdc42-GTP, and GST-RBD domain of Rhotekin for RhoA-GTP respectively. […]

Chain of Cdc42 (P60766 whole entry): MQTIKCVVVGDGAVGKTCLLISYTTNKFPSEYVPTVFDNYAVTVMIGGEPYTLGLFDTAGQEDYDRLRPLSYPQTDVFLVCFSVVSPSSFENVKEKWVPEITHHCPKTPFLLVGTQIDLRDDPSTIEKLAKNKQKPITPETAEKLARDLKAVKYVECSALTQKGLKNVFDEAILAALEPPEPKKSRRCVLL

## OCCNC1CCCc2c1[nH]c1ccc(-c3ccccc3)cc21 (centres unmarked) [CASIN]
[1]
  number of genotypic HSCs (IL7Ra^−Lin^−Sca-1^+c-Kit^+) in the BM: decreased significantly
C57Bl/6 mice
  mobilization of colony-forming progenitors to the peripheral blood: more than six-fold
PAK1, WASP, WAVE, ROCK
  phosphorylation of PAK1 and WASP: inhibit
  phosphorylation of WAVE and ROCK: without affecting
Cdc42
  Cdc42 activity: dose-dependently inhibited
